Measurements taken from article PMC4071569, “Investigation of Indolglyoxamide and Indolacetamide Analogues of Polyamines as Antimalarial and Antitrypanosomal Agents” (Marine Drugs, 2014).
Where two headings read alike, the source gives them in different places.

Experiments:
[1] = tested on: Trypanosoma brucei rhodesiense, STIB 900 strain, trypomastigotes stage; parameters: method as in PMID 21348447; conditions: data taken from ref 24, read-out: IC50 T. b. rhod.; cited from earlier work
[2] = tested on: L6 rat skeletal myoblast cell line; parameters: method as in PMID 21348447; conditions: data taken from ref 24; cited from earlier work
[3] = tested on: Plasmodium falciparum, K1 strain, IEF stage; conditions: cited from earlier work; for Pf SI (selectivity index for P. falciparum = IC50 L6/IC50 Pf): K1 strain vs L6
[4] = tested on: Plasmodium falciparum, NF54 strain, IEF stage; assay: In vitro antimalarial activity, NF54 drug sensitive strain; type: cell-based; conditions: for IC50: NF54 strain, IEF stage, average of two independent assays, read-out: IC50 P. falc.; for Pf SI (selectivity index for P. falciparum = IC50 L6/IC50 Pf): NF54 strain vs L6
Protocol: (§1) The in vitro activities against the protozoan parasites T.b. rhodesiense, and P. falciparum and cytotoxicity assessment against L6 cells were determined as reported elsewhere.

[5] = tested on: L6 rat skeletal myoblast cell line; assay: Cytotoxicity towards L6 cells; type: cell-based; conditions: L6 rat skeletal myoblast cell line; average of two independent assays; read-out: IC50 L6
Protocol: as §1

[6] = tested on: Trypanosoma brucei rhodesiense, STIB 900 strain, trypomastigotes stage; assay: In vitro anti-trypanosomal activity (growth inhibition); type: cell-based; conditions: STIB 900 strain, trypomastigotes, average of two independent assays, read-out: IC50 T. b. rhod.
Protocol: as §1

[7] = tested on: GFP-transfected P. berghei strain ANKA; assay: In vivo anti-malarial efficacy in P. berghei infected mice; parameters: species or system Plasmodium berghei; conditions: repeated ip dose of 50 (mg/kg)/day for four days
Protocol: Analogue 20 was selected for in vivo evaluation in Plasmodium berghei infected mice. […] No increase in mean survival time was observed.
In vivo anti-malarial activity was assessed as previously described. Groups of three female NMRI mice (20–22 g) were intravenously infected with 2 × 10^7 parasitized erythrocytes on day 0 with GFP-transfected P. berghei strain ANKA [32]. Compounds were formulated in 100% DMSO, diluted 10-fold in distilled water and administered intraperitoneally in a volume of 10 mL·kg^−1 on four consecutive days (4, 24, 48 and 72 h post infection). Parasitemia was determined on day 4 post infection (24 h after last treatment) by FACS analysis. Activity was calculated as the difference between the mean per cent parasitaemia for the control (n = 5 mice) and treated groups expressed as a per cent relative to the control group. The survival of the animals was usually monitored up to 30 days: a compound was considered curative if the animal survived to day 30 after infection with no detectable parasites. In vivo efficacy studies in mice were conducted according to the rules and regulations for the protection of animal rights (“Tierschutzverordnung”) of the Swiss “Bundesamt für Veterinärwesen”. They were approved by the veterinary office of Canton Basel-Stadt, Switzerland.

[8] = K1 strain, IEF stage, data taken from ref 24, read-out: IC50 P. falc.

| Compound | IC50 ([4]; Plasmodium falciparum) [µM] | IC50 [5] [µM] | IC50 ([6]; Trypanosoma brucei) [µM] | Pf SI (selectivity index for P. falciparum = IC50 L6/IC50 Pf) [4] | other results |
| --- | --- | --- | --- | --- | --- |
| NCCCCNCCCNC(=O)C(=O)c1c[nH]c2ccccc12 [Compound 2, didemnidine A] | – | – | – | – | IC50 [1]: 59 µM; IC50 [2]: 24 µM; Pf SI (selectivity index for P. falciparum = IC50 L6/IC50 Pf) ([3]; data taken from ref 24): 0.59; IC50 [3, 8]: 41 µM |
| NCCCCNCCCNC(=O)C(=O)c1c[nH]c2cc(Br)ccc12 [Compound 3, didemnidine B] | – | – | – | – | IC50 [1]: 44 µM; IC50 [2]: 25 µM; Pf SI (selectivity index for P. falciparum = IC50 L6/IC50 Pf) ([3]; data taken from ref 24): 1.7; IC50 [3, 8]: 15 µM |
| CC(C)(C)OC(=O)NCCCCNCCCNC(=O)C(=O)c1c[nH]c2cc(Br)ccc12 [Compound 4] | – | – | – | – | IC50 [1]: 9.9 µM; IC50 [2]: 25 µM; Pf SI (selectivity index for P. falciparum = IC50 L6/IC50 Pf) ([3]; data taken from ref 24): 3.0; IC50 [3, 8]: 8.4 µM |
| COc1ccc2c(C(=O)C(=O)NCCCN(CCCCCCCCN(CCCNC(=O)C(=O)c3c[nH]c4cc(OC)ccc34)C(=O)OC(C)(C)C)C(=O)OC(C)(C)C)c[nH]c2c1 [Compound 19, Di-tert-butyl Octane-1,8-diylbis((3-(2-(6-methoxy-1H-indol-3-yl)-2-oxoacetamido)propyl)carbamate)] | 0.14 | ≥ 120 | 6.1 | – | melting point: 92 °C |
| COc1cccc2c(C(=O)C(=O)NCCCN(CCCCCCCCN(CCCNC(=O)C(=O)c3c[nH]c4c(OC)cccc34)C(=O)OC(C)(C)C)C(=O)OC(C)(C)C)c[nH]c12 [Compound 20, Di-tert-butyl Octane-1,8-diylbis((3-(2-(7-methoxy-1H-indol-3-yl)-2-oxoacetamido)propyl)carbamate)] | 0.092 | ≥ 120 | 61 | ≥1300 | increase in mean survival time [7]: No increase; reduction in parasitaemia ([7]; parasitemia on day 4 post infection): 20.9% |
| COc1ccc2[nH]cc(C(=O)C(=O)NCCCNCCCCCCCCCCCCNCCCNC(=O)C(=O)c3c[nH]c4ccc(OC)cc34)c2c1.O=C(O)C(F)(F)F.O=C(O)C(F)(F)F [Compound 30, N^1,N^12-Bis(3-(2-(5-methoxy-1H-indol-3-yl)-2-oxoacetamido)propyl)dodecane-1,12-diaminium 2,2,2-trifluoroacetate] | 0.2 | 17 | 0.27 | 85 | – |
| COc1ccc2c(C(=O)C(=O)NCCCNCCCCCCCCCCCCNCCCNC(=O)C(=O)c3c[nH]c4cc(OC)ccc34)c[nH]c2c1.O=C(O)C(F)(F)F.O=C(O)C(F)(F)F [Compound 31, N^1,N^12-Bis(3-(2-(6-methoxy-1H-indol-3-yl)-2-oxoacetamido)propyl)dodecane-1,12-diaminium 2,2,2-trifluoroacetate] | 0.24 | 6 | 0.18 | 25 | – |
| COc1cccc2c(C(=O)C(=O)NCCCNCCCCCCCCCCCCNCCCNC(=O)C(=O)c3c[nH]c4c(OC)cccc34)c[nH]c12.O=C(O)C(F)(F)F.O=C(O)C(F)(F)F [Compound 32, N^1,N^12-Bis(3-(2-(7-methoxy-1H-indol-3-yl)-2-oxoacetamido)propyl)dodecane-1,12-diaminium 2,2,2-trifluoroacetate] | 0.01 | 2.1 | 0.26 | 210 | – |
| CC(C)(C)OC(=O)N(CCCCN(CCCNC(=O)Cc1c[nH]c2ccccc12)C(=O)OC(C)(C)C)CCCNC(=O)Cc1c[nH]c2ccccc12 [Compound 33, Di-tert-butyl Butane-1,4-diylbis((3-(2-(1H-indol-3-yl)acetamido)propyl)carbamate)] | 0.16 | 19 | 7.1 | 120 | – |
| O=C(Cc1c[nH]c2ccccc12)NCCCNCCCCNCCCNC(=O)Cc1c[nH]c2ccccc12.O=C(O)C(F)(F)F.O=C(O)C(F)(F)F [Compound 36, N^1,N^4-Bis(3-(2-(1H-indol-3-yl)acetamido)propyl)butane-1,4-diaminium 2,2,2-trifluoroacetate] | 0.18 | 74 | 75 | 410 | – |
| COc1cc(CC(=O)NCCCNCCCCNCCCNC(=O)Cc2ccc(O)c(OC)c2)ccc1O [orthidine F, reference compound] | – | – | – | – | IC50 ([3]; K1 dual drug-resistant strain, read-out: IC50 antimalarial potency (P. falciparum)): 0.89 µM |
| N^1,N^4-Bis(3-(2-(7-methoxy-1H-indol-3-yl)acetamido)propyl)butane-1,4-diaminium 2,2,2-trifluoroacetate [Compound 16] | – | 62 | – | 48 | IC50 [4]: 1.3 µM; IC50 [6]: 45 µM |
